Values after ≈ are worked out from the molar mass of the structure shown.
How the values were obtained:
[1] = Cytotoxicity against human PC3 cells after 72 hrs by XTT assay; assay type: functional, cell-based; details: PC-3, 72 h
A549 = assay: Cytotoxicity against human A549 cells after 72 hrs by XTT assay; assay type: functional, cell-based; details: A549, 72 h
Micrococcus luteus [2] = assay: Bactericidal activity against Micrococcus luteus MTCC 2470 after 24 hrs by serial dilution method; assay type: functional; details: MTCC 2470, 24 h
Escherichia coli = assay: Antimicrobial activity against Escherichia coli MTCC 739 after 24 hrs by well diffusion method; assay type: functional; details: MTCC 739, 24 h
Micrococcus luteus [3] = assay: Antimicrobial activity against Micrococcus luteus MTCC 2470 after 24 hrs by well diffusion method; assay type: functional; details: MTCC 2470, 24 h
Pseudomonas aeruginosa = assay: Antimicrobial activity against Pseudomonas aeruginosa MTCC 2453 after 24 hrs by well diffusion method; assay type: functional; details: MTCC 2453, 24 h
Staphylococcus aureus [4] = assay: Bactericidal activity against Staphylococcus aureus MLS16 MTCC 2940 after 24 hrs by serial dilution method; assay type: functional; details: MLS16 MTCC 2940, 24 h
Staphylococcus aureus [5] = assay: Bactericidal activity against Staphylococcus aureus MTCC 96 after 24 hrs by serial dilution method; assay type: functional; details: MTCC 96, 24 h
Raoultella planticola [6] = assay: Bactericidal activity against Klebsiella planticola MTCC 530 after 24 hrs by serial dilution method; assay type: functional; details: MTCC 530, 24 h
Candida albicans = assay: Antimicrobial activity against Candida albicans MTCC 3017 after 24 hrs by well diffusion method; assay type: functional; details: MTCC 3017, 24 h
Bacillus subtilis [7] = assay: Antimicrobial activity against Bacillus subtilis MTCC 121 after 24 hrs by well diffusion method; assay type: functional; details: MTCC 121, 24 h
Raoultella planticola [8] = assay: Antimicrobial activity against Klebsiella planticola MTCC 530 after 24 hrs by well diffusion method; assay type: functional; details: MTCC 530, 24 h
Staphylococcus aureus [9] = assay: Antimicrobial activity against Staphylococcus aureus MTCC 96 after 24 hrs by well diffusion method; assay type: functional; details: MTCC 96, 24 h
Staphylococcus aureus [10] = assay: Antimicrobial activity against Staphylococcus aureus MLS16 MTCC 2940 after 24 hrs by well diffusion method; assay type: functional; details: MLS16 MTCC 2940, 24 h
Bacillus subtilis [11] = assay: Bactericidal activity against Bacillus subtilis MTCC 121 after 24 hrs by serial dilution method; assay type: functional; details: MTCC 121, 24 h
Bacillus subtilis [12] = assay: Antibiofilm activity against Bacillus subtilis MTCC 121 after 24 hrs by crystal violet staining based assay; assay type: functional, organism-based; details: MTCC 121, 24 h
Micrococcus luteus [13] = assay: Antibiofilm activity against Micrococcus luteus MTCC 2470 after 24 hrs by crystal violet staining based assay; assay type: functional, organism-based; details: MTCC 2470, 24 h

What does the source list for CN(Cc1ccc(F)cc1)C(=O)c1ccc(-c2cc(C3=CC(=O)C=CC3=O)no2)s1?
IC50 [1]: > 30 µM; IC50 (A549): > 30 µM

For O=C1C=CC(=O)C(c2cc(-c3ccc(C(=O)N4CCC(C(F)(F)F)CC4)s3)on2)=C1, which IC50 [1] is on record?
The IC50 was greater than 30 µM.

And the IC50 (A549)?
Its IC50 is greater than 30 µM.

Which IC50 [1] does the source give for CCCN(C)C(=O)c1ccc(-c2cc(C3=CC(=O)C=CC3=O)no2)s1 here?
Its IC50 is less than 30 µM.

What about the IC50 (A549) of the same molecule?
Its IC50 is greater than 30 µM.

For COc1ccc(OC)c(-c2cc(-c3ccc(C(=O)N4CCOCC4)s3)on2)c1, which IC50 [1] is on record?
The IC50 was greater than 30 µM.

And the IC50 (A549)?
Its IC50 is greater than 30 µM.

What does the source list for CN(Cc1ccccc1)C(=O)c1ccc(-c2cc(C3=C(N4CC4)C(=O)C=C(N4CC4)C3=O)no2)s1?
MBC (Micrococcus luteus [2]): 62.5 µg/mL (≈ 128 µM); MIC (Escherichia coli): > 125 µg/mL; MIC (Micrococcus luteus [3]): 15.6 µg/mL (≈ 32.1 µM); MIC (Pseudomonas aeruginosa): > 125 µg/mL; MBC (Staphylococcus aureus [4]): 125 µg/mL (≈ 257 µM); MBC (Staphylococcus aureus [5]): 62.5 µg/mL (≈ 128 µM); MBC (Raoultella planticola [6]): > 125 µg/mL; MIC (Candida albicans): > 125 µg/mL; MIC (Bacillus subtilis [7]): 31.2 µg/mL (≈ 64.1 µM); IC50 [1]: 1.2 µM; MIC (Raoultella planticola [8]): > 125 µg/mL; IC50 (A549): 7.3 µM; MIC (Staphylococcus aureus [9]): 31.2 µg/mL (≈ 64.1 µM); MIC (Staphylococcus aureus [10]): 62.5 µg/mL (≈ 128 µM); MBC (Bacillus subtilis [11]): 125 µg/mL (≈ 257 µM)

Which results are given for COc1ccc(CN(C)C(=O)c2ccc(-c3cc(C4=CC(=O)C=CC4=O)no3)s2)cc1?
IC50 [1]: < 30 µM; IC50 (A549): > 30 µM

Which results are given for O=C1C=CC(=O)C(c2cc(-c3ccc(C(=O)NCC4CC4)s3)on2)=C1?
IC50 [1]: > 30 µM; IC50 (A549): > 30 µM

For CN(Cc1ccccc1)C(=O)c1ccc(-c2cc(C3=CC(=O)C=CC3=O)no2)s1, which IC50 [1] is on record?
The IC50 was 11 µM.

What about the IC50 (A549) of the same molecule?
The IC50 was greater than 30 µM.

Which results are given for CCN(CC)C(=O)c1ccc(-c2cc(C3=CC(=O)C=CC3=O)no2)s1?
IC50 [1]: 8.9 µM; IC50 (A549): 10 µM

What does the source list for CCN(CC)C(=O)c1ccc(-c2cc(-c3cc(OC)ccc3OC)no2)s1?
IC50 [1]: > 30 µM; IC50 (A549): 11 µM

For CCCN(C)C(=O)c1ccc(-c2cc(-c3cc(OC)ccc3OC)no2)s1, which IC50 [1] is on record?
The IC50 was greater than 30 µM.

What about the IC50 (A549) of the same molecule?
Its IC50 is greater than 30 µM.

With COc1ccc(CN(C)C(=O)c2ccc(-c3cc(-c4cc(OC)ccc4OC)no3)s2)cc1 as the molecule, how does the IC50 [1] read?
The IC50 was greater than 30 µM.

And the IC50 (A549)?
Its IC50 is greater than 30 µM.

With CCN(CC)C(=O)c1ccc(-c2cc(C3=C(N4CC4)C(=O)C=C(N4CC4)C3=O)no2)s1 as the molecule, how does the MBC (Micrococcus luteus [2]) read?
Its MBC is 62.5 µg/mL (≈ 143 µM).

And the MIC (Escherichia coli)?
Its MIC is greater than 125 µg/mL.

And the MIC (Micrococcus luteus [3])?
Its MIC is 15.6 µg/mL (≈ 35.6 µM).

What about the MIC (Pseudomonas aeruginosa) of the same molecule?
The MIC was greater than 125 µg/mL.

And the MBC (Staphylococcus aureus [4])?
The MBC was 31.2 µg/mL (≈ 71.2 µM).

What about the MBC (Staphylococcus aureus [5]) of the same molecule?
Its MBC is 15.6 µg/mL (≈ 35.6 µM).

And the MBC (Raoultella planticola [6])?
The MBC was 62.5 µg/mL (≈ 143 µM).

What about the MIC (Candida albicans) of the same molecule?
The MIC was 15.6 µg/mL (≈ 35.6 µM).

What about the MIC (Bacillus subtilis [7]) of the same molecule?
The MIC was 7.8 µg/mL (≈ 17.8 µM).

What about the IC50 [1] of the same molecule?
Its IC50 is 0.5 µM.

What about the MIC (Raoultella planticola [8]) of the same molecule?
Its MIC is 15.6 µg/mL (≈ 35.6 µM).

What about the IC50 (A549) of the same molecule?
The IC50 was 0.9 µM.

And the MIC (Staphylococcus aureus [9])?
Its MIC is 7.8 µg/mL (≈ 17.8 µM).

What about the MIC (Staphylococcus aureus [10]) of the same molecule?
Its MIC is 7.8 µg/mL (≈ 17.8 µM).

And the MBC (Bacillus subtilis [11])?
Its MBC is 31.2 µg/mL (≈ 71.2 µM).

Which results are given for COc1ccc(OC)c(-c2cc(-c3ccc(C(=O)N4CCC(C(F)(F)F)CC4)s3)on2)c1?
IC50 [1]: > 30 µM; IC50 (A549): > 30 µM

Which results are given for O=C1C=C(N2CC2)C(=O)C(c2cc(-c3ccc(C(=O)N4CCC(C(F)(F)F)CC4)s3)on2)=C1N1CC1?
MBC (Micrococcus luteus [2]): 62.5 µg/mL (≈ 121 µM); MIC (Escherichia coli): > 125 µg/mL; MIC (Micrococcus luteus [3]): 31.2 µg/mL (≈ 60.2 µM); MIC (Pseudomonas aeruginosa): > 125 µg/mL; MBC (Staphylococcus aureus [4]): > 125 µg/mL; MBC (Staphylococcus aureus [5]): > 125 µg/mL; MBC (Raoultella planticola [6]): > 125 µg/mL; MIC (Candida albicans): 31.2 µg/mL (≈ 60.2 µM); MIC (Bacillus subtilis [7]): 3.9 µg/mL (≈ 7.52 µM); IC50 [1]: 2 µM; MIC (Raoultella planticola [8]): > 125 µg/mL; IC50 (Bacillus subtilis [12]): 2.1 µM; IC50 (A549): 3.7 µM; MIC (Staphylococcus aureus [9]): > 125 µg/mL; IC50 (Micrococcus luteus [13]): 16.2 µM; MIC (Staphylococcus aureus [10]): > 125 µg/mL; MBC (Bacillus subtilis [11]): 7.8 µg/mL (≈ 15 µM)

— ChEMBL document CHEMBL3808371, “Design, synthesis and biological evaluation of diaziridinyl quinone isoxazole hybrids” (Eur J Med Chem, 2016)
